Experimental data as given in US8829014B2, “Thiazole and thiophene analogues, and their use in treating autoimmune diseases and cancers” (Board of Supervisors of Louisiana State University and …, priority 2006, dated 2014).
“Also recorded” adds a separate entry of the source. Read-outs that look alike come from different tables or passages of the source. Marks after values point to notes of the source that are not given here.

How the values were obtained:
AP-1 [1] = assay: AP-1 inhibitor screen: basal AP-1-dependent luciferase expression in HEK/AP-1 cell line; type: cell-based; conditions: for inhibition at 1 µM: AP1, determined as described in Example 398
Outline: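 HEK293 cells stably carrying a luciferase reporter driven by three AP-1 elements were plated 24 hr, then given compound at 1.0 μM in 0.3% DMSO for 48 hr, in triplicate. Basal expression without stimulus was read as luminescence (Brite-Glo), normalized to DMSO; dose-response runs repeated two to four times.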

NF-κB [2] = assay: NF-κB inhibitor screen: basal NF-κB-dependent luciferase expression in HEK/NF-κB cell line; type: cell-based; conditions: for inhibition at 1 µM: determined as described in Example 398, read-out: NFkB inhibition @ 1 uM; for inhibition of NF-κB (summary statement): summary in the disclosure
Outline: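 HEK293 cells stably carrying a luciferase reporter under six NF-κB elements were treated with compound, unstimulated, 24 h after plating. Compounds were first tested at 1.0 μM (0.3% DMSO), later at six doses from 10 to 3300 nM, in triplicate. Brite-Glo luciferase signal was normalized to DMSO, or to the lowest dose for dose-response runs.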

carageenan-induced edema = assay: Carrageenan-induced rat paw edema test (anti-inflammatory activity); type: in vivo, Sprague-Dawley rats; conditions: for inhibition in vivo at 50 mg/kg: po, 3 h, carrageenan-induced rat paw edema, defined in Example 397, read-out: % Protection
Outline: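 Sprague-Dawley rats (male and female, 150-250 g), fasted 18 h, given compound orally at 50 mg/kg in 0.1% sodium CMC (alternatively i.v., s.c. or i.p.). 1% carrageenan injected sub-plantar in right hind paw 1 h later. Paw displacement read again 3 h later; % protection = [(Control−Test)/Control]×100 versus saline control.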

NF-κB [3] = assay: TNF-α-induced NF-κB-dependent luciferase expression in HEK cells; type: cell-based; design: NF-κB % inhibition: concentration or dose not given beside the values
AP-1 [4] = assay: PMA-induced AP-1 luciferase expression in HEK cells; type: cell-based

| IC50 (NF-κB [3]; 20 ng/ml TNF-α, 24 hr (FIG. 15), read-out: IC50, TNF-α induced NF-κB gene expression) | Compound | inhibition at 1 µM (AP-1 [1]) | inhibition at 1 µM (NF-κB [2]) | inhibition of NF-κB (summary statement) (NF-κB [2]) | inhibition in vivo at 50 mg/kg (carageenan-induced edema) | NF-κB % inhibition (NF-κB [3]; TNF-α-induced, compound added 1 h before inducer, luciferase 24 h later, normalized to DMSO vehicle) | AP-1 % inhibition (AP-1 [4]; PMA-induced, compound added 1 h before inducer, luciferase 24 h later, normalized to DMSO vehicle) | inhibition in vivo at 50 mg/kg (carageenan-induced edema; Rattus norvegicus) | NFkB inhibition @ 1 uM (NF-κB [3]; 1 uM, luciferase in HEK/NF-κB cells, as described in Example 398) | basal AP-1-dependent luciferase, six-point dose response (AP-1 [1]; 10 nM-3300 nM (FIG. 14)) | AP-1 inhibition @ 1 uM (AP-1 [4]; 1 uM, luciferase in HEK/AP-1 cells, as described in Example 398) | basal NF-κB-dependent luciferase, six-point dose response (NF-κB [2]; 10 nM-3300 nM (FIG. 12), listed as Compound 35) | inhibition of basal NF-κB-dependent luciferase expression (NF-κB [2]; 3.3 μM (FIG. 12)) | % Protection P (carageenan-induced edema; rat paw edema, 50 mg/kg, reading 3 hours after carrageenan, [(Control−Test)/Control]×100%) |
| --- | --- | --- | --- | --- | --- | --- | --- | --- | --- | --- | --- | --- | --- | --- |
| – | COc1ccc(-n2c(-c3sc(Nc4ccc(Cl)cc4)nc3-c3ccccc3)nc3ccccc3c2=O)cc1 [Example 225, 2-[2-(4-Chloro-phenylamino)-4-phenyl-thiazol-5-yl]-3-(4-methoxyphenyl)-3H-quinazolin-4-one] | 58% | 47% | capable of inhibiting | 80% | – | – | – | – | – | – | – | – | – |
| – | CNc1nc(C)c(-c2nc3ccccc3c(=O)n2-c2ccc(Cl)cc2)s1 [Example 244, 2-(4-Methyl-2-methylamino-thiazol-5-yl)-3-(4-chloro-phenyl)-3H-quinazolin-4-one] | 82% | 93% | – | – | 0% | 87** % | 71% | – | – | – | – | – | – |
| < 0.1 µM | Bis-[2-(4-Chloro-phenylamino)-4-benzayl-thiazole-5-yl]-methanone [Example 134] | – | – | capable of inhibiting | – | – | – | – | 67.87 | substantial activity at submicromolar concentrations | 72.77 | substantial activity at submicromolar concentrations; also recorded: robust inhibition | about 50% | 75.69% |
